# Reference: ChEMBL document CHEMBL4507319 (2021)
# Tests used:
# [1] = biological target: Cyclin-dependent kinase-like 5 (Homo sapiens) (UniProt O76039); conditions: Compound concentration 1000.0 nM
# [2] = biological target: STE20-like serine/threonine-protein kinase (Homo sapiens) (UniProt Q9H2G2); conditions: Compound concentration 1000.0 nM
# [3] = biological target: T1, Serine/threonine-protein kinase BRSK2 (Homo sapiens) (UniProt Q8IWQ3); conditions: Compound concentration 1000.0 nM
# T1 sequence (whole entry): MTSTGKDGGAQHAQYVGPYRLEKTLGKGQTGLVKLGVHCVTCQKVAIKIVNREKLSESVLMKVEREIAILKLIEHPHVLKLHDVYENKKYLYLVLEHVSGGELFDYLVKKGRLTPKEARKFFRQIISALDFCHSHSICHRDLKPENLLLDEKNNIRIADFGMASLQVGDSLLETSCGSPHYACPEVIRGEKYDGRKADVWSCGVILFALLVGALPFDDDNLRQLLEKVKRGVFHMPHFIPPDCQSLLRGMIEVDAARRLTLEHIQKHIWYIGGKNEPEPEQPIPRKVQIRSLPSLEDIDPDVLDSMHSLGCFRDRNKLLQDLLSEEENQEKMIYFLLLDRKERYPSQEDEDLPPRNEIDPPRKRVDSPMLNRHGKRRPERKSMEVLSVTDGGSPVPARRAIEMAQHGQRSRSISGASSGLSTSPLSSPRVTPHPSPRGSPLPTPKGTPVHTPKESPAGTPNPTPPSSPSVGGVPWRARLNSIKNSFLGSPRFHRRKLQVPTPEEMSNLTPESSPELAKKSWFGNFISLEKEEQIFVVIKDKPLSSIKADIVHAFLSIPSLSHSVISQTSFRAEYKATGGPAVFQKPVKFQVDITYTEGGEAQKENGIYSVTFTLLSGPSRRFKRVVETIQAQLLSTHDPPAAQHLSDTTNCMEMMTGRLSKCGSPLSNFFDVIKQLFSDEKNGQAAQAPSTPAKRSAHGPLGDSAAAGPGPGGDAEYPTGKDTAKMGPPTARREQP
# [4] = biological target: T2, Mitogen-activated protein kinase kinase kinase 7 (Homo sapiens) (UniProt O43318); conditions: Compound concentration 1000.0 nM
# T2 sequence (whole entry): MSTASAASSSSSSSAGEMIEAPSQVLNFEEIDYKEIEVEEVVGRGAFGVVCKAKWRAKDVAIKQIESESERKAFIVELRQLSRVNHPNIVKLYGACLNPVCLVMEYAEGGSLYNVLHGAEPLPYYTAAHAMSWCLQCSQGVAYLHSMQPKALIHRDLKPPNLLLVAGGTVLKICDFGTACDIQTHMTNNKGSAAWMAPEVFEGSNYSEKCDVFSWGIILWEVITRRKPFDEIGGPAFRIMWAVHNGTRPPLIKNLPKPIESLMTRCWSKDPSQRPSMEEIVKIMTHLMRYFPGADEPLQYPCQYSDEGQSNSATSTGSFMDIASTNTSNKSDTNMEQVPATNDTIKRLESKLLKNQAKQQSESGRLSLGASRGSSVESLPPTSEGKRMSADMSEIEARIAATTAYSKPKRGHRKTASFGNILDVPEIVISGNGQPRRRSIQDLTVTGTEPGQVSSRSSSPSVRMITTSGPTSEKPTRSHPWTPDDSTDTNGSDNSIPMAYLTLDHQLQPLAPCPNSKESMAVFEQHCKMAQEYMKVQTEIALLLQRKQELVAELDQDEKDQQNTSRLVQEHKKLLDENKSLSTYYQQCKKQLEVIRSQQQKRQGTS
# [5] = biological target: T3, Ephrin type-B receptor 2 (Homo sapiens) (UniProt P29323); conditions: Compound concentration 1000.0 nM
# T3 sequence (whole entry): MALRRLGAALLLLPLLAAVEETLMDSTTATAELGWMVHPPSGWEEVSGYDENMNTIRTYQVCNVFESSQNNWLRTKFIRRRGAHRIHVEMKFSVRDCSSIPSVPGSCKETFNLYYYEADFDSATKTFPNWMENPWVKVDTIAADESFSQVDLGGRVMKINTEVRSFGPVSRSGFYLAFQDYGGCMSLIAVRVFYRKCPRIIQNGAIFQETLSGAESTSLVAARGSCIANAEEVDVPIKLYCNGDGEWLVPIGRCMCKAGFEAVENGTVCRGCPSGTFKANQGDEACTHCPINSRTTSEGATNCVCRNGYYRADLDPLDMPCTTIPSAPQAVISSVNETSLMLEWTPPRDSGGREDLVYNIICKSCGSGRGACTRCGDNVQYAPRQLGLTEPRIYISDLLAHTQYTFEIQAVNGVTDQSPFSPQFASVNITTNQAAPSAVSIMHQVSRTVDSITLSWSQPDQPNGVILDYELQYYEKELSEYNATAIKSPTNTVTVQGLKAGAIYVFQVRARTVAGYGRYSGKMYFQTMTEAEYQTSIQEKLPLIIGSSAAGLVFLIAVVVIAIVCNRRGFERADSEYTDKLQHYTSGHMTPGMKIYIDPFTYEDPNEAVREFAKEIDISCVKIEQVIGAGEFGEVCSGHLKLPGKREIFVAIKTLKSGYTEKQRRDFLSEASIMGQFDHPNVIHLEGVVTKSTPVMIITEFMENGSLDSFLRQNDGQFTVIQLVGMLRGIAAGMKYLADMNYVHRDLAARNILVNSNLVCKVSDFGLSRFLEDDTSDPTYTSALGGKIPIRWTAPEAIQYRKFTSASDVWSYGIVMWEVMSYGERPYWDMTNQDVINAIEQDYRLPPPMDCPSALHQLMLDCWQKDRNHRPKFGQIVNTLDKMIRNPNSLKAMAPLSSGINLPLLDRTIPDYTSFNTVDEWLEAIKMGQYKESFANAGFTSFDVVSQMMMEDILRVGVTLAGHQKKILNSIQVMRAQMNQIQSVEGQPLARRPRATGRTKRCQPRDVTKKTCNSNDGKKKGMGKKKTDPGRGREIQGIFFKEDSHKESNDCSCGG
# [6] = biological target: 5-hydroxytryptamine receptor 1A (Homo sapiens) (UniProt P08908); conditions: Compound concentration 10.0 uM
# [7] = biological target: Myosin light chain kinase 2, skeletal/cardiac muscle (Homo sapiens) (UniProt Q9H1R3); conditions: Compound concentration 1000.0 nM
# Sequence of Myosin light chain kinase 2, skeletal/cardiac muscle (Homo sapiens) (Q9H1R3 whole entry): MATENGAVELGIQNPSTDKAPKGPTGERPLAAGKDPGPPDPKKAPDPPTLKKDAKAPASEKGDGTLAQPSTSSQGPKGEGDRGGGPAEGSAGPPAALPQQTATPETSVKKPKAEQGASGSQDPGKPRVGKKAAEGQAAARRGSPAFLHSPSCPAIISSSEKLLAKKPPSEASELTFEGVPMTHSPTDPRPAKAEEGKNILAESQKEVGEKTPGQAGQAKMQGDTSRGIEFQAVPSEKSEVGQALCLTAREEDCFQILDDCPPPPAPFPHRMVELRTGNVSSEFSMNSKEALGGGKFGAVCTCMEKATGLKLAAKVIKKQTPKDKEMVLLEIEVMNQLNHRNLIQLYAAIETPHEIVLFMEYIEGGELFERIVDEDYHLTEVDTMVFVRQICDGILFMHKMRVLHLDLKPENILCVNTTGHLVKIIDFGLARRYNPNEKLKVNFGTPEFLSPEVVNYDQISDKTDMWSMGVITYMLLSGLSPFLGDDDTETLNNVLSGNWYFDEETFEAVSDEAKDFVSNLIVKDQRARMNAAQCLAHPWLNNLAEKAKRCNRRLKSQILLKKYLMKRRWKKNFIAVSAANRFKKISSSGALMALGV
# Sequence of STE20-like serine/threonine-protein kinase (Homo sapiens) (Q9H2G2 whole entry, looked up): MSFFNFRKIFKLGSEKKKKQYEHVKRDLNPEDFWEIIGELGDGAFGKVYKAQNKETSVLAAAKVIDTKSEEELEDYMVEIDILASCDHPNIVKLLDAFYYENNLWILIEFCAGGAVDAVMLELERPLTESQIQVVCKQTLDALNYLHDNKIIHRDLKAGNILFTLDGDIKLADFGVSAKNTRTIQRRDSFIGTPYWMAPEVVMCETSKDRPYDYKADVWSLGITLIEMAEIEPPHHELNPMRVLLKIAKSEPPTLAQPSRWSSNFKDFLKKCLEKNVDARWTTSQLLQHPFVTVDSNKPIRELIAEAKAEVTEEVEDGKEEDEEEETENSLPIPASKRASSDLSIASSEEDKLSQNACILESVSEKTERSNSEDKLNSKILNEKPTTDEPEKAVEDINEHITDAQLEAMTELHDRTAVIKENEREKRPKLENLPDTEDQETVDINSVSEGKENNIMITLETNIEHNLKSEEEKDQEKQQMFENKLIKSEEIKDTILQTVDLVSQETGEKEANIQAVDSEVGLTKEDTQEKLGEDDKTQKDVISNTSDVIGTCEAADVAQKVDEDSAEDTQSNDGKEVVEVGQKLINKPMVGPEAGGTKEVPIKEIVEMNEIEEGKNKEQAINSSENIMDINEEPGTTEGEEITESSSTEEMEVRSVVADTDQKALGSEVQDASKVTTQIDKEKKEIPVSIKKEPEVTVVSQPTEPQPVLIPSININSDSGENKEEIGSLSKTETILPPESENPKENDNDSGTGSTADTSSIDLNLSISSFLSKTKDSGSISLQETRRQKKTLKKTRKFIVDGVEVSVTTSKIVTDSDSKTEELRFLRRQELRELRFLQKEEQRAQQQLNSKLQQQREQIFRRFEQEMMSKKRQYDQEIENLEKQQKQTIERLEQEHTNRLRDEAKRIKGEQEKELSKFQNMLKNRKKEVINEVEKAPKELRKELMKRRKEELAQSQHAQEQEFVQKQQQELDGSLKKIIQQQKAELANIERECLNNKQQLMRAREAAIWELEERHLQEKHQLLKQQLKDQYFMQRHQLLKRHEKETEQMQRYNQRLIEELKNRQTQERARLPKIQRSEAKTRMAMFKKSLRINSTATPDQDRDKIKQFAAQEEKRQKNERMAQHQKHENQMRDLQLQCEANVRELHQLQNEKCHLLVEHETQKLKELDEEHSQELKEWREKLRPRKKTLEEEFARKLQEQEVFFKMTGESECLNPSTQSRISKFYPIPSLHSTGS
# Sequence of Cyclin-dependent kinase-like 5 (Homo sapiens) (O76039 whole entry): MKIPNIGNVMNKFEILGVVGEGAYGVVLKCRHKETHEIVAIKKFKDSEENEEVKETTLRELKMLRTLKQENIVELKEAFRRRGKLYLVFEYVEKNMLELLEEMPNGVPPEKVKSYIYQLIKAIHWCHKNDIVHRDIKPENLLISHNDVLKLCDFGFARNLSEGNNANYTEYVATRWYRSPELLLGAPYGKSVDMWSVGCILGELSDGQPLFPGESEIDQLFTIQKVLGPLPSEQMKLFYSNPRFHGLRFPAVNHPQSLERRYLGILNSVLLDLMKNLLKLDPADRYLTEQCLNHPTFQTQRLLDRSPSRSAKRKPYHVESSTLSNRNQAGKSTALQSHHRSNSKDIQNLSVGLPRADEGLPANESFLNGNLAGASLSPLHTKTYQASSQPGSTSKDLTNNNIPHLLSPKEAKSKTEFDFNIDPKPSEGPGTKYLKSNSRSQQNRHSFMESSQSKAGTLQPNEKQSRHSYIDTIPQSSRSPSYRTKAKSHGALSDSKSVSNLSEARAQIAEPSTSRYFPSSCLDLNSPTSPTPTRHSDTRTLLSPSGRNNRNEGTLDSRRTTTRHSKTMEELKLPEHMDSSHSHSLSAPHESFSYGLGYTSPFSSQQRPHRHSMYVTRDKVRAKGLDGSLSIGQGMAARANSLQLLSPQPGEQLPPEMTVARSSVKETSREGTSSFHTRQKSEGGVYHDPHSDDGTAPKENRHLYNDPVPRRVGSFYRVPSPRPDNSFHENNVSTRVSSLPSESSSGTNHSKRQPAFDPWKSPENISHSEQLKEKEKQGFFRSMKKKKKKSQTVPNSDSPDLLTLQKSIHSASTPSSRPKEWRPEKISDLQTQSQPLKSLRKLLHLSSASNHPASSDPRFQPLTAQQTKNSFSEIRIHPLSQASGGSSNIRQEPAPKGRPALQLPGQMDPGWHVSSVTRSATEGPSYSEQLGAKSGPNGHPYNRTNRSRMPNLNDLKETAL
# Sequence of 5-hydroxytryptamine receptor 1A (Homo sapiens) (P08908 whole entry): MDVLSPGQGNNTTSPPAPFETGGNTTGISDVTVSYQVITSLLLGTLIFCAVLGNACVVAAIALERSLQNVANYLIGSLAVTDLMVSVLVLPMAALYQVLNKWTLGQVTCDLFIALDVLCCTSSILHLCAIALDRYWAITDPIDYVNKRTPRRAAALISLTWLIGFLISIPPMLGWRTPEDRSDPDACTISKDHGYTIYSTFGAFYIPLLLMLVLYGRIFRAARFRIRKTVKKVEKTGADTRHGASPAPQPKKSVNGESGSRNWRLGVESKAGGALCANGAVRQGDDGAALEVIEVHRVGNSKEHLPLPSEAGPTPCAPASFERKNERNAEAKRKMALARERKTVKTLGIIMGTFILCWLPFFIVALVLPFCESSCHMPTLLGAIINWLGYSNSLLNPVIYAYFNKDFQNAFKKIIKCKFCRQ
SMILES,residual activity [1] [%],residual activity [2] [%],residual activity [3] [%],residual activity [4] [%],residual activity [5] [%],inhibition [6] [%],residual activity [7] [%]
CCc1ccccc1C(=O)Nc1n[nH]c2c(C)c(F)c(C3C(C#N)=C(C)N(C)C(C)=C3C#N)cc12 [BAY-3827],100,100,36,92,76,5.2,80
CC1=C(C#N)C(c2ccc3c(c2)c(NC(=O)c2ccccc2C)nn3C)C(C#N)=C(C)N1 [BAY-974],79,88,92,74,86,8.55,89
